The values below are quoted from earlier work in patent US7727757B2, “Methods of eliciting antiviral immune responses utilizing viral particles comprising photoinactivated reverse transcriptase” (priority 1998, dated 2010).

Molecules are shown by their SMILES. pIC50: −log10 of the molar value. “Also recorded” adds a separate entry of the source.

In one data set the test system is HIV. To be noted: short exposure, without photoinactivation.
The subject of another data set is HIV infected cells. Particulars: compound provided to HIV infected cells.
Data set [1] addresses HIV-1 reverse transcriptase (Human immunodeficiency virus type 1 group M subtype B, UniProt P04585). Particulars: for inhibition of RT (in words): prior-art statement; for pIC50: value stated without method or source, used to set the incubation concentration, read-out: IC50 (50% inhibitory concentration).

As for `CC(C)=CCOc1cc(NC(=S)c2ccoc2C)ccc1Cl` [UC781™, N-[4-chloro-3-(3-methyl-2-butenyloxy)phenyl]-2-methyl-3-furanocarbothiamide], in the data set on HIV, the “HIV infectivity after exposure of isolated virus” value is reported as “eliminate HIV infectivity”. Further, in the data set on HIV infected cells, the “infectivity of nascent virus from HIV infected cells” value is given as “production of noninfectious nascent virus; also recorded: inactivate nascent virus from HIV-infected cells”. The “inhibition of ERT in HIV virions” value in the data set on ERT in HIV virions is “inhibit ERT in HIV virions”. In data set [1], the “inhibition of RT (in words)” value is recorded as “potent inhibitors of RT” and the pIC50 is 9.70.
For `CCN1c2cc(N=[N+]=[N-])ccc2N(C)C(=O)c2cccnc21` [azido dipyridodiazepinona, 9-Azido-5,6-dihydro-11-ethyl-6-methyl-11H-pyrido[2,3-b][1,5]benzodiazepin-5-one], in data set [1], the “inhibition of RT (in words)” value is given as “potent inhibitors of RT” and the pIC50 was 6.80.
